Here are results for ten compounds from patent US12252493B2, “Imidazo[1,2-c]pyrimidine derivatives as PRC2 inhibitors for treating cancer” (Mirati Therapeutics, Inc., priority 2019, dated 2025).

Molecules are shown by their SMILES. Like-named read-outs stand apart in the source and are kept apart here.

Assay [1] relates to PRC2-mediated histone H3 methylation (H3 Lys27 trimethylation) in Pfeiffer cells expressing mutant EZH2 (A677G). As to the kind of experiment: Tri-Methyl Histone H3 (Lys 27) sandwich ELISA in Pfeiffer cells. It counts as cell-based, human. To be noted: Pfeiffer cells, 96 hours incubation, ELISA, read-out: IC50, Inhibition of EZH2-mediated Histone H3 Trimethylation. The source says:
The Pfeiffer cell line was established from a […] from a patient having metastatic diffuse large B-cell lymphoma (DLBCL). This cell line expresses a mutant form of the EZH2 enzyme (A677G) that results in enhanced EZH2 activity leading to increased methylation of histone H3 Lys27. Increased trimethylation of histone H3 Lys27 is believed to be implicated in tumorgenesis and poor clinical prognosis in lymphomas (McCabe et al., (2012) Nature 492:108-112).
Inhibition of PRC2-mediated histone H3 methylation by compounds of Formula (I) was measured by ELISA using a Tri-Methyl Histone H3 (Lys 27) Sandwich ELISA Kit (Cell Signaling Tech #7866C) in accordance with the manufacturer's instructions. Briefly, Pfeiffer cells were cultured in RPMI medium supplemented with 10% fetal bovine serum and 1% penicillin and 1% streptomycin in 96 well culture plates at 37° C. to a density of 8000 cells/90 μl/well and the cells were harvested. A series of 3-fold serial dilutions of each test compound of Formula (I) were prepared in RPMI medium and added to the cells at final concentrations ranging from 1 μM to 0.15 nM. The plates were incubated at 37° C. for 96 hours.
After incubation, the cells were pelleted by centrifugation in a pre-cooled 4° C. rotor at 1,100 rpm for 10 min and the supernatant was removed by aspiration. The cell pellet was resuspended in 55 μl of Lysis Buffer (0.4M HCl) and incubated on ice with periodic shaking for 30 minutes. The lysed cells were subjected to centrifugation at 4,200 rpm for 10 min at 4° C. and the supernatant containing acid-soluble proteins was collected and the remainder discarded. The acid-soluble proteins were brought to a neutral pH by the addition of 20 μl of Neutralization Buffer (1 M Sodium phosphate, dibasic (pH 12.5), 2.5 mM DTT and 1 mM PMSF) and the neutralized lysates were analyzed by ELISA.
A 65 μl aliquot of each cell lysate was added to a well of a microwell strip, the microwells were sealed using tape and incubated either at 37° C. for two hours or at 4° C. overnight. After incubation, the tape was removed at the microwells were washed four times using 200 μl of 1× Wash Buffer. To each washed microwell, a 100 μl aliquot of an anti-trimethyl histone H3 Lys27 Detection Antibody solution was added and the microwells were incubated at 37° C. for one hour. The Detection Antibody solution was removed by aspiration and the wells were washed four times each using 200 μl of 1× Wash Buffer.
A 100 μl aliquot of an HRP-linked secondary antibody was added to each well, the wells were sealed with tape and incubated at 37° C. for 30 min. The HRP-linked secondary antibody solution was removed by aspiration and the wells were washed four times using 200 μl of 1× Wash Buffer. A 100 μl aliquot of a TMB substrate was added to each well, the wells were sealed with tape and incubated at 37° C. for 10 min or 25° C. for 30 min. The reaction was stopped by the addition of 100 μl aliquot of a STOP solution and the plate was shaken briefly. The degree of histone H3 trimethylation was determined using a spectrophotometric readout by measuring the absorbance at 450 nm and then calculating the amount of trimethylated histone H3. Key: A=≤250 nM; B=>250 nM-≤500 nM; and C=>500 nM-≤5 μM.
(In an ELISA, binding on a coated surface is turned into a signal by an enzyme label.)

In assay [2] the target is purified human, His-tagged PRC2 complex (Homo sapiens (Human), UniProt O75530). As to the kind of experiment: Hot Spot HMT assay of PRC2 enzymatic activity (tritiated methyl transfer from SAM to core histone). Type of assay: biochemical. The settings on record: 10 nM purified PRC2 complex, 0.05 mg/ml core histone H3, 1 uM 3H-SAM, 1 hr at 30° C.; read-out: IC50, Inhibition of PRC2-mediated Enzymatic Activity. As for the experimental part:
Ten-point dose-response curves for compounds of the present invention were determined using a Hot Spot HMT assay (Reaction Biology Corp; see Horiuchi et al., Assay Drug Dev Technol. (2013) 4: 227-236 doi: 10.1089/adt.2012.480). The assay uses purified human, His-tagged PRC2 complex, including N-terminal His-tagged EZH2 enzyme, N-terminal Flag-tagged embryonic ectoderm development protein (EED), N-terminal His-tagged suppressor of zeste 12 (SUZ12), N-terminal His-tagged AEBP2, and N-terminal His-tagged RbAp48. In this assay, the transfer of the tritiated methyl group from radiolabeled S-adenosyl methionine (SAM) to purified core histone protein by EZH2 is quantitated after filtration to determine the activity of the core PRC2 complex in the presence and absence of compound.
Briefly, compounds of the present invention were solubilized in DMSO and a series of 10, three-fold serial dilutions were made for each compound in 15% DMSO. The initial starting concentration for the serial dilutions of each compound was 1.0 μM. Control samples lacking compound, EZH2 enzyme or various reaction components also were prepared and processed in parallel with compound test samples. SAH (S-(5-adenosyl)-L-homocysteine) was used as a positive control for assay validation.
An aliquot of each serial dilution of test compound was added to deep 384 well plate using Acoustic Technology instrument (Echo 550, LabCyte) containing reaction buffer (50 mM Tris-HCl (pH 8.)), 0.01% Brij35, 1 mM EDTA, 1 mM DTT, 1 mM PMSF and 1% DMSO), 10 nM purified PRC2 complex and 0.05 mg/ml core histone H3 in a 5 μl volume. The reaction was mixed gently and then pre-incubated for 20 min at 30° C. The enzymatic reaction was initiated by adding 1 uM S-Adenosyl-L-[methyl ^3H]methionine and incubated for 1 hr at 30° C. After 1 hr, the reaction product was detected using a filter binding method and the amount of tritiated H3 core histone was quantitated using a scintillation counter. The IC50 value for each compound was determined from each 10-point dose-response curve using GraphPad Prism software and the results for exemplary compounds of Formula (I) are shown in Table 5. Key: A=≤250 nM; B=>250 nM—≤500 nM; and C=>500 nM—≤2 μM.

Assay [3] concerns Karpas 422 cells expressing mutant EZH2 (Y641N). As to the kind of experiment: Karpas 422 cell viability (Cell Titre Glo) assay. It counts as cell-based, human. The settings on record: CTG viability, time point (Day 4, Day 7 or Day 11) not given, read-out: IC50, Inhibiting Proliferation of Cells Expressing an Activating Mutant Form of EZH2. As for the experimental part:
Karpas 422 cell line is a human B cell non-Hodgkin's lymphoma cell line established from a patient having DLBCL. This EZH2 heterozygotic cell line expresses a mutant form of EZH2 enzyme (Y641N) that increases histone H3 methylation and this mutation has been implicated in the tumorgenesis of lymphomas, such as DLBCL.
Karpas 422 cells (PHE cat no., 06101702) were cultured in RPMI medium supplemented with 20% fetal bovine serum and 1% penicillin/1% streptomycin and plated at a density of 1000 cells/90 μl/well in 96 well white assay plates. A dose response curve for compounds of the present invention was determined by adding a 10 μl aliquot of stock solutions of varying concentrations of compounds to the same medium in each well, over a concentration range of 10 μM using 3-fold dilutions to a final concentration of 1.5 nM. The plates were incubated at 37° C. for predetermined time periods, Day 4, Day 7, or Day 11, and the viability of the cells was measured using a CTG assay kit (Cell Titre Glo; Promega cat. no G7573) on Day 4 and Day 7 in accordance with the manufacturer's instructions.
For the viability assay for the Day 11 plates, the plates were subjected to centrifugation at 1100 rpm for five minutes on Day 7 and the supernatant was removed by aspiration. The cells were resuspended in 90 μl aliquot of the appropriate growth medium lacking the compound followed by addition of 10 μl of a 10× stock of the same compound at the same concentration. The viability of the Day 11 cells was measured using the CTG assay kit described above in accordance with the manufacturer's instructions. The IC50 values for each compound at each predetermined time point were calculated using Graph pad PRISM software and the results are shown in Table 7. Key: A=≤250 nM; B=>250 nM-≤500 nM; C=>500 nM-≤5 μM and N.D.=not determined.

Chain of purified human, His-tagged PRC2 complex (Q15910 whole entry): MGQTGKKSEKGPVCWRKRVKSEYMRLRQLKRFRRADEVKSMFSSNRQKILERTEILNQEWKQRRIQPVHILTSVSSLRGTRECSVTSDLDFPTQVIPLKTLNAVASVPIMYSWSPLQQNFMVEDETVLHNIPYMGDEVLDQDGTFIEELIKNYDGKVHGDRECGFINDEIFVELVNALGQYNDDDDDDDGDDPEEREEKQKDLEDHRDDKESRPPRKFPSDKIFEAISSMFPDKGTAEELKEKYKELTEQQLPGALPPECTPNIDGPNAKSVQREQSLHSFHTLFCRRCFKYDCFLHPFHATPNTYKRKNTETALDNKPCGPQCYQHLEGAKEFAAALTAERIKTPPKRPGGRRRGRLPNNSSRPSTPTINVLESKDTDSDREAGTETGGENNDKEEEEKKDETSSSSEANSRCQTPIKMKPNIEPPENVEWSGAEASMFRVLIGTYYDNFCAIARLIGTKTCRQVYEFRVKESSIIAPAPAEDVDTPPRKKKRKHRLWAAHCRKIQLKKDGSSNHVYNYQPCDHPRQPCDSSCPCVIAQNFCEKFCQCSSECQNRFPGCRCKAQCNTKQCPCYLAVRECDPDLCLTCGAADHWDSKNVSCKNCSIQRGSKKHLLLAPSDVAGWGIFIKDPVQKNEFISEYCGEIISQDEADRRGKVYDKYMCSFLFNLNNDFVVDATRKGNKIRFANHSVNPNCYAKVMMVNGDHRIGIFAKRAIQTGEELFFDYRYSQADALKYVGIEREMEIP
Chain of purified human, His-tagged PRC2 complex (O75530 whole entry): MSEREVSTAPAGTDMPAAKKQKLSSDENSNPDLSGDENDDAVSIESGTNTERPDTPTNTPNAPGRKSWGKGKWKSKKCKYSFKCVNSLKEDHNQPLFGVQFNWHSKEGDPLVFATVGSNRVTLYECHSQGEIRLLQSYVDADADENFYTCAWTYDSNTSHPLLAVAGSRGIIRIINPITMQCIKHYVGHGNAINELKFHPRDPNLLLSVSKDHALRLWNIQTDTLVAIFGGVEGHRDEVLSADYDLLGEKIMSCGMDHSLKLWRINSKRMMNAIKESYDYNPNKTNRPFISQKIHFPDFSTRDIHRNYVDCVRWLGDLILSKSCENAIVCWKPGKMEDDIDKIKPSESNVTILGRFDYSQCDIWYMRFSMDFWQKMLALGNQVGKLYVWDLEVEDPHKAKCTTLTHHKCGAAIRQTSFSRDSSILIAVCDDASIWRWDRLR
Chain of purified human, His-tagged PRC2 complex (Q15022 whole entry partner): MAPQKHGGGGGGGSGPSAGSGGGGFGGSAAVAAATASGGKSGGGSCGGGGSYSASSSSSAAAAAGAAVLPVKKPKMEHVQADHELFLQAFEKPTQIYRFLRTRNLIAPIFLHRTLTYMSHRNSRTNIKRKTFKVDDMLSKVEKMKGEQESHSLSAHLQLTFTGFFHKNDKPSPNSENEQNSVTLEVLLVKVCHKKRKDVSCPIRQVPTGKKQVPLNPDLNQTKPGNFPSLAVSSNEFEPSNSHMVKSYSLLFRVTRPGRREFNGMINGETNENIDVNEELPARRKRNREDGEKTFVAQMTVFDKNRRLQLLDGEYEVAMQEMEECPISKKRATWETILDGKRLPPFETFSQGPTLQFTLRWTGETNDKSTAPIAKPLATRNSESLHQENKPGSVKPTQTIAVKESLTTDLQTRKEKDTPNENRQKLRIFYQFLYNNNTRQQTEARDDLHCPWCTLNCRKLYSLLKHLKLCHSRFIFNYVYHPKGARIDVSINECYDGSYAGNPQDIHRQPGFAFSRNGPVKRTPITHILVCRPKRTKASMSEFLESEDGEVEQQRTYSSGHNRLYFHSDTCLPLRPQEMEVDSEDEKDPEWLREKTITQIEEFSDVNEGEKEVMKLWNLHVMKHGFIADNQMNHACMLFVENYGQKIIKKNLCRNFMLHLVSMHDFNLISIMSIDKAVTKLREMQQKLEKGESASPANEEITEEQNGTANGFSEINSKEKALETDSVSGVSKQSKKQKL
Chain of purified human, His-tagged PRC2 complex (Q6ZN18 whole entry partner): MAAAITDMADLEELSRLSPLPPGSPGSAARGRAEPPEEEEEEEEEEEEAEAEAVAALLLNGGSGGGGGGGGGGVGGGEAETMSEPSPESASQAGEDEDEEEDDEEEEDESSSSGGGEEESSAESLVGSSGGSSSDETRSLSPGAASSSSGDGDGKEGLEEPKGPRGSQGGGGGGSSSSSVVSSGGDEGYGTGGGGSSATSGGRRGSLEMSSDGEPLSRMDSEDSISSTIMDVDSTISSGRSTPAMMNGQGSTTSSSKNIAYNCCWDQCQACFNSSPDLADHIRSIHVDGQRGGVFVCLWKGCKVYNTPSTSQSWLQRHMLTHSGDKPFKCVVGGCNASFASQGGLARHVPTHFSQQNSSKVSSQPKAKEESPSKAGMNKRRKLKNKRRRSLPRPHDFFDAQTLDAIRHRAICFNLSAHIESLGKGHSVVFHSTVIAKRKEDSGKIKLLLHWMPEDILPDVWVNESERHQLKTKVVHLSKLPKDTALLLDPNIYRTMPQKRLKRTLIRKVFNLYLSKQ
Chain of purified human, His-tagged PRC2 complex (Q09028 whole entry partner): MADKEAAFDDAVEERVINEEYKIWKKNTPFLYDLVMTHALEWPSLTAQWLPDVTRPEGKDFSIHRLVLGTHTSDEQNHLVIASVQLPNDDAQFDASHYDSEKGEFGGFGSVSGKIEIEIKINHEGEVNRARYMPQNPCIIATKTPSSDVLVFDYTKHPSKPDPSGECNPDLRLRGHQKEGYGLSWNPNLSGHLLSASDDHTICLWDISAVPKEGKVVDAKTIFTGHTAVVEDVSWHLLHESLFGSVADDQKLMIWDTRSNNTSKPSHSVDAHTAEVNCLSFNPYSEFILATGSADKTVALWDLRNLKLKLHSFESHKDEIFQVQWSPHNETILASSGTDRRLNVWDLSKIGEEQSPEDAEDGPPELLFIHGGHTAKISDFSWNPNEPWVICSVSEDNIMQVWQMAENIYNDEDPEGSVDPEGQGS

In the case of `Cc1cc(-c2cnc(NCc3c(F)ccc4c3CCO4)n3cc(C(C)N)nc23)n(C)n1` (single isomer, unassigned) [Example 12, 2-(1-aminoethyl)-8-(1,3-dimethyl-1H-pyrazol-5-yl)-N-((5-fluoro-2,3-dihydrobenzofuran-4-yl)methyl)imidazo[1,2-c]pyrimidin-5-amine], the IC50 in assay [1], in assay [2] and in assay [3] was less than 250 nM in each case.

For the compound `Cc1cc(-c2cnc(NCc3c(F)ccc4c3CCO4)n3cc(C(C)O)nc23)n(C)n1` (stereo not drawn) [Example 7, 1-(8-(1,3-dimethyl-1H-pyrazol-5-yl)-5-(((5-fluoro-2,3-dihydrobenzofuran-4-yl)methyl)amino)imidazo[1,2-c]pyrimidin-2-yl)ethan-1-ol], the IC50 in assay [1] (Homo sapiens) was less than 250 nM; in assay [2] it was less than 250 nM; in assay [3] (Homo sapiens), 500 to 5000 nM.

On to `COCc1cn2c(NCc3c(F)ccc4c3CCO4)ncc(-c3cc(C)nn3C)c2n1` [Example 9, 8-(1,3-dimethyl-1H-pyrazol-5-yl)-N-((5-fluoro-2,3-dihydrobenzofuran-4-yl)methyl)-2-(methoxymethyl)imidazo[1,2-c]pyrimidin-5-amine], for which the IC50 in assay [1] (Homo sapiens) is 500 to 5000 nM; in assay [2] it was 500 to 2000 nM; in assay [3] (Homo sapiens) it was 250 to 500 nM.

Take `Cc1cc(-c2cnc(NCc3c(F)ccc4c3CCO4)n3cc(CN)nc23)n(C)n1` [Example 10, 2-(aminomethyl)-8-(1,3-dimethyl-1H-pyrazol-5-yl)-N-((5-fluoro-2,3-dihydrobenzofuran-4-yl)methyl)imidazol[1,2-c]pyramidin-5-amine]: the IC50 in assay [1] (Homo sapiens), in assay [2] and in assay [3] (Homo sapiens) was less than 250 nM throughout.

Consider `Cc1cc(S(C)(=O)=O)ccc1-c1cnc(NCc2c(F)ccc3c2CCO3)n2cc(CN)nc12` [Example 13, 2-(aminomethyl)-N-((5-fluoro-2,3-dihydrobenzofuran-4-yl)methyl)-8-(2-methyl-4-(methylsulfonyl)phenyl)imidazo[1,2-c]pyrimidin-5-amine], for which the IC50 in assay [1] (Homo sapiens), in assay [2] and in assay [3] (Homo sapiens) was less than 250 nM in each case.

As to `Cn1nc(C(F)(F)F)cc1-c1cnc(NCc2c(F)ccc3c2CCO3)n2cc(CN)nc12` [Example 15, 2-(aminomethyl)-N-((5-fluoro-2,3-dihydrobenzofuran-4-yl)methyl)-8-(1-methyl-3-(trifluoromethyl)-1H-pyrazol-5-yl)imidazo[1,2-c]pyrimidin-5-amine], the IC50 is less than 250 nM in assay [1] (Homo sapiens), 250 to 500 nM in assay [2] and less than 250 nM in assay [3] (Homo sapiens).

Turning to `NCc1cn2c(NCc3c(F)ccc4c3CCO4)ncc(-c3cc(F)cc(F)c3)c2n1` [Example 16, 2-(aminomethyl)-8-(3,5-difluorophenyl)-N-((5-fluoro-2,3-dihydrobenzofuran-4-yl)methyl)imidazo[1,2-c]pyrimidin-5-amine], the IC50 in assay [1] (Homo sapiens) lay within 500 to 5000 nM; in assay [2], 500 to 2000 nM; in assay [3] (Homo sapiens), 500 to 5000 nM.

Turning to `Cc1c(F)cccc1-c1cnc(NCc2c(F)ccc3c2CCO3)n2cc(CN)nc12` [Example 17, 2-(aminomethyl)-N-((5-fluoro-2,3-dihydrobenzofuran-4-yl)methyl)-8-(3-fluoro-2-methylphenyl)imidazo[1,2-c]pyrimidin-5-amine], the IC50 in assay [1] (Homo sapiens) lay within 500 to 5000 nM; in assay [2], 500 to 2000 nM; in assay [3] (Homo sapiens), 500 to 5000 nM.

`Cn1nccc1-c1cnc(NCc2c(F)ccc3c2CCO3)n2cc(CN)nc12` [Example 18, 2-(aminomethyl)-N-((5-fluoro-2,3-dihydrobenzofuran-4-yl)methyl)-8-(1-methyl-1H-pyrazol-5-yl)imidazo[1,2-c]pyrimidin-5-amine]: the IC50 in assay [1] (Homo sapiens), in assay [2] and in assay [3] (Homo sapiens) was less than 250 nM throughout.

With `Cc1ncccc1-c1cnc(NCc2c(F)ccc3c2CCO3)n2cc(CN)nc12` [Example 19, 2-(aminomethyl)-N-((5-fluoro-2,3-dihydrobenzofuran-4-yl)methyl)-8-(2-methylpyridin-3-yl)imidazo[1,2-c]pyrimidin-5-amine], the IC50 in assay [1] (Homo sapiens) was 250 to 500 nM; in assay [2], less than 250 nM; in assay [3] (Homo sapiens), less than 250 nM.
